Assay results from patent US10745382B2 (BRISTOL-MYERS SQUIBB COMPANY, priority 2015, dated 2020).
Where two headings read alike, the source gives them in different places.

Target: T1, PD-1/PD-L1 (Homo sapiens, UniProt Q9NZQ7)
T1 construct: made in house; host or cells: HEK293T
Test: PD-1/PD-L1 Homogenous Time-Resolved Fluorescence (HTRF) binding assay
Conditions: PD-L1-His 10 nM, PD-1-Ig 20 nM, read-out: Range or IC50
Procedure, shortened: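 Binding measured in dPBS with 0.1% BSA and 0.05% Tween-20, detected by HTRF with europium cryptate anti-Ig (1 nM final) and APC anti-His (20 nM final) added over the binding reaction. Counter-assays used human PD-1-Ig/PD-L2-His (20 and 5 nM) and CD80-His/PD-L1-Ig (100 and 10 nM).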

T1 sequence (Q9NZQ7 with tags, fused parts or gaps): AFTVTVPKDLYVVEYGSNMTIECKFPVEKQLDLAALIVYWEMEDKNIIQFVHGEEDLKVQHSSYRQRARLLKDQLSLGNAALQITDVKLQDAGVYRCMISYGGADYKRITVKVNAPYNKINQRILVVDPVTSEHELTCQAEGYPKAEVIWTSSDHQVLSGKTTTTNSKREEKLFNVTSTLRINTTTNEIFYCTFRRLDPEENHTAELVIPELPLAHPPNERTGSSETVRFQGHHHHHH

Compound | IC50 (value given as range class) | IC50 (numeric IC50)
Cc1c(COc2cc(OCc3cncc(C#N)c3)c(CN[C@H](CO)C(=O)O)cc2Cl)cccc1-c1cccc(OCC(=O)N2CC[C@H](O)C2)c1 [Example 1003, (R)-2-((5-chloro-2-((5-cyanopyridin-3-yl)methoxy)-4-((3′-(2-((S)-3-hydroxypyrrolidin-1-yl)-2-oxoethoxy)-2-methyl-[1,1′-biphenyl]-3-yl)methoxy)benzyl)amino)-3-hydroxypropanoic Acid] | 10 to 100 nM | 
CC(=O)NC1CCN(CCCOc2cccc(-c3cccc(COc4cc(OCc5cncc(C#N)c5)c(CN5CCCC[C@H]5C(=O)O)cc4Cl)c3C)c2Cl)CC1 [Example 1078, (S)-1-(4-((3′-(3-(4-acetamidopiperidin-1-yl)propoxy)-2′-chloro-2-methyl-[1,1′-biphenyl]-3-yl)methoxy)-5-chloro-2-((5-cyanopyridin-3-yl)methoxy)benzyl)piperidine-2-carboxylic Acid] | 0.21 to 10 nM | 
Cc1c(COc2cc(OCc3cncc(C#N)c3)c(CN[C@](C)(CO)C(=O)O)cc2Cl)cccc1-c1cccc(OCCCN2CCC(O)(c3ccccc3)C2)c1C (stereo partly drawn) [Example 3038, (2R)-2-((5-chloro-2-((5-cyanopyridin-3-yl)methoxy)-4-((3′-(3-(3-hydroxy-3-phenylpyrrolidin-1-yl)propoxy)-2,2′-dimethyl-[1,1′-biphenyl]-3-yl)methoxy)benzyl)amino)-3-hydroxy-2-methylpropanoic Acid] | 0.21 to 10 nM | 
Cc1c(COc2cc(OCc3cncc(C#N)c3)c(CNCCCN(C)C)cc2Cl)cccc1-c1cccc(CNCCCN(C)C)c1 [Example 3062, 5-((4-chloro-2-(((3-(dimethylamino)propyl)amino)methyl)-5-((3′-(((3-(dimethylamino)propyl)amino)methyl)-2-methyl-[1,1′-biphenyl]-3-yl)methoxy)phenoxy)methyl)nicotinonitrile] | 100 to 2000 nM | 
Cc1c(COc2cc(OCc3cncc(C#N)c3)c(CN[C@@H](CO)C(=O)O)cc2Cl)cccc1-c1cccc(OCCCN2CCC(O)(c3ccccc3)C2)c1C (stereo partly drawn) [Example 3039, (2S)-2-((5-chloro-2-((5-cyanopyridin-3-yl)methoxy)-4-((3′-(3-(3-hydroxy-3-phenylpyrrolidin-1-yl)propoxy)-2,2′-dimethyl-[1,1′-biphenyl]-3-yl)methoxy)benzyl)amino)-3-hydroxypropanoic Acid] | 0.21 to 10 nM | 
CNC(=O)c1cccc(-c2cccc(COc3cc(OCc4cc(F)cc(F)c4)c(CN4CCOC[C@H]4C(=O)O)cc3Cl)c2C)c1C [Example 4027, (S)-4-(5-chloro-2-((3,5-difluorobenzyl)oxy)-4-((2,2′-dimethyl-3′-(methylcarbamoyl)-[1,1′-biphenyl]-3-yl)methoxy)benzyl)morpholine-3-carboxylic Acid] | 2010 to 10000 nM | 
Cc1c(COc2cc(OCc3cncc(C#N)c3)c(CN[C@](C)(CO)C(=O)O)cc2Cl)cccc1-c1cccc(OCCCN2CCC(O)C2)c1C (stereo in doubt) [Example 3005, (R)-2-((5-chloro-2-((5-cyanopyridin-3-yl)methoxy)-4-((3′-(3-((R)-3-hydroxypyrrolidin-1-yl)propoxy)-2,2′-dimethyl-[1,1′-biphenyl]-3-yl)methoxy)benzyl)amino)-3-hydroxy-2-methylpropanoic Acid] | 0.21 to 10 nM | 
Cc1c(COc2cc(OCc3cncc(C#N)c3)c(CN[C@@](C)(CO)C(=O)O)cc2Cl)cccc1-c1cccc(OCCCN2CCC(CO)CC2)c1C [Example 2275, (S)-2-((5-chloro-2-((5-cyanopyridin-3-yl)methoxy)-4-((3′-(3-(4-(hydroxymethyl)piperidin-1-yl)propoxy)-2,2′-dimethyl-[1,1′-biphenyl]-3-yl)methoxy)benzyl)amino)-3-hydroxy-2-methylpropanoic Acid] | 0.21 to 10 nM | 
CCNC(=O)c1cccc(-c2cccc(COc3cc(OCc4cncc(C#N)c4)c(CN4CCCC[C@H]4C(=O)O)cc3Cl)c2C)c1C [Example 4006, (S)-1-(5-chloro-2-((5-cyanopyridin-3-yl)methoxy)-4-((3′-(ethylcarbamoyl)-2,2′-dimethyl-[1,1′-biphenyl]-3-yl)methoxy)benzyl)piperidine-2-carboxylic Acid] | 10 to 100 nM | 
Cc1c(COc2cc(OCc3cncc(C#N)c3)c(CN3CCN(CCO)CC3)cc2Cl)cccc1-c1cccc(OCCCN2CCN(CCO)CC2)c1C [Example 2258, 5-((4-chloro-2-((4-(2-hydroxyethyl)piperazin-1-yl)methyl)-5-((3′-(3-(4-(2-hydroxyethyl)piperazin-1-yl)propoxy)-2,2′-dimethylbiphenyl-3-yl)methoxy)phenoxy)methyl)nicotinonitrile] | 0.21 to 10 nM | 
COc1cc(OCc2cccc(-c3cccc(OCCCN4CC[C@@H](O)C4)c3C)c2C)c(Cl)cc1CN[C@@H](CO)C(=O)O [Example 3035, (2S)-2-((5-chloro-4-((3′-(3-((R)-3-hydroxypyrrolidin-1-yl)propoxy)-2,2′-dimethyl-[1,1′-biphenyl]-3-yl)methoxy)-2-methoxybenzyl)amino)-3-hydroxypropanoic Acid] | 0.21 to 10 nM | 

Now from value to compound:

IC50 (value given as range class) | IC50 (numeric IC50) | Compound
0.21 to 10 nM |  | Cc1c(OCCCN2CC[C@@H](O)C2)cccc1-c1cccc(COc2cc(OCC(=N)N3CC[C@@H](O)C3)c(CNC(CO)CO)cc2Cl)c1Cl [Example 2315, 2-((5-chloro-4-((2-chloro-3′-(3-((R)-3-hydroxypyrrolidin-1-yl)propoxy)-2′-methyl-[1,1′-biphenyl]-3-yl)methoxy)-2-(2-((R)-3-hydroxypyrrolidin-1-yl)-2-iminoethoxy)benzyl)amino)propane-1,3-diol]
0.21 to 10 nM |  | Cc1c(COc2cc(OCc3cncc(C#N)c3)c(CNC(C)(CO)CO)cc2Cl)cccc1-c1cccc(OCCCN2CC[C@@H](O)C2)c1C [Example 2324, (R)-5-((4-chloro-2-(((1,3-dihydroxy-2-methylpropan-2-yl)amino)methyl)-5-((3′-(3-(3-hydroxypyrrolidin-1-yl)propoxy)-2,2′-dimethyl-[1,1′-biphenyl]-3-yl)methoxy)phenoxy)methyl)nicotinonitrile]
100 to 2000 nM |  | Cc1c(COc2cc(OCc3cncc(C#N)c3)c(CNC(CO)CO)cc2Cl)cccc1-c1cccc(OCCCN2CCC(O)(CO)CC2)c1Cl [Example 2063, 5-((4-chloro-5-((2′-chloro-3′-(3-(4-hydroxy-4-(hydroxymethyl)piperidin-1-yl)propoxy)-2-methyl-[1,1′-biphenyl]-3-yl)methoxy)-2-(((1,3-dihydroxypropan-2-yl)amino)methyl)phenoxy)methyl)nicotinonitrile]
0.21 to 10 nM |  | Cc1c(COc2cc(OCc3cncc(C#N)c3)c(CN[C@@](C)(CO)C(=O)O)cc2Cl)cccc1-c1cccc(OCCCN2CCC(O)(CC(=O)O)C2)c1C (stereo partly drawn) [Example 1517, (2S)-2-((4-((3′-(3-(3-(carboxymethyl)-3-hydroxypyrrolidin-1-yl)propoxy)-2,2′-dimethyl-[1,1′-biphenyl]-3-yl)methoxy)-5-chloro-2-((5-cyanopyridin-3-yl)methoxy)benzyl)amino)-3-hydroxy-2-methylpropanoic acid]
0.21 to 10 nM |  | Cc1c(COc2cc(OCc3cncc(C#N)c3)c(CNC(CO)CO)cc2Cl)cccc1-c1cccc(C(=O)NCCN2CCCC2)c1C [Example 4003, 3′-((2-chloro-5-((5-cyanopyridin-3-yl)methoxy)-4-(((1,3-dihydroxypropan-2-yl)amino)methyl)phenoxy)methyl)-2,2′-dimethyl-N-(2-(pyrrolidin-1-yl)ethyl)-[1,1′-biphenyl]-3-carboxamide]
0.21 to 10 nM |  | CCC(CO)(CO)NCc1cc(Cl)c(OCc2cccc(-c3cccc(OCCCN4CCCC(CO)C4)c3C)c2C)cc1OCc1cncc(C#N)c1 (stereo not drawn) [Example 2283, 5-((4-chloro-2-(((1-hydroxy-2-(hydroxymethyl)butan-2-yl)amino)methyl)-5-((3′-(3-(3-(hydroxymethyl)piperidin-1-yl)propoxy)-2,2′-dimethyl-[1,1′-biphenyl]-3-yl)methoxy)phenoxy)methyl)nicotinonitrile]
 | 87 nM | CNC(=O)c1cccc(-c2cccc(COc3cc(OCc4cc(F)cc(F)c4)c(CN4CCC[C@H]4C(=O)O)cc3Cl)c2C)c1C [Example 4024, (5-chloro-2-((3,5-difluorobenzyl)oxy)-4-((2,2′-dimethyl-3′-(methylcarbamoyl)-[1,1′-biphenyl]-3-yl)methoxy)benzyl)-L-proline]
 | 1.9 nM | Cc1c(COc2cc(OCc3cncc(C#N)c3)c(CNC(CO)CO)cc2Cl)cccc1-c1cccc(OCCCN2CCCCC2)c1C [Example 2291, 5-((4-chloro-2-(((1,3-dihydroxypropan-2-yl)amino)methyl)-5-((2,2′-dimethyl-3′-(3-(piperidin-1-yl)propoxy)-[1,1′-biphenyl]-3-yl)methoxy)phenoxy)methyl)nicotinonitrile]
0.21 to 10 nM |  | Cc1c(COc2cc(OCc3cncc(C#N)c3)c(CNC[C@H](O)CO)cc2Cl)cccc1-c1cccc(OCCCN2CC[C@H](CO)[C@H](O)C2)c1Cl [Example 2031, 5-((4-chloro-5-((2′-chloro-3′-(3-((3 S,4R)-3-hydroxy-4-(hydroxymethyl)piperidin-1-yl)propoxy)-2-methyl-[1,1′-biphenyl]-3-yl)methoxy)-2-((((S)-2,3-dihydroxypropyl)amino)methyl)phenoxy)methyl)nicotinonitrile]
0.21 to 10 nM |  | Cc1c(COc2cc(OCc3cncc(S(C)(=O)=O)c3)c(CN[C@](C)(CO)C(=O)O)cc2Cl)cccc1-c1cccc(OCCCN2CC(O)C(C(=O)O)C2)c1C (stereo partly drawn) [Example 1075, 1-(3-((3′-((4-((((R)-2-carboxy-1-hydroxypropan-2-yl)amino)methyl)-2-chloro-5-((5-(methylsulfonyl)pyridin-3-yl)methoxy)phenoxy)methyl)-2,2′-dimethyl-[1,1′-biphenyl]-3-yl)oxy)propyl)-4-hydroxypyrrolidine-3-carboxylic Acid]
